Reference: patent publication US8426429B2, “2-amino-quinazoline derivatives useful as inhibitors of β-secretase (BACE)” (Jansssen Pharmaceutica N.V., priority 2004, dated 2013)

Target: T1, β-secretase (BACE) (Homo sapiens, UniProt P56817)
T1 construct: purchased Panvera
Assay: BACE FS1 % Inhibition Assay
Type: biochemical
Procedure, shortened: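 Percent inhibition per compound concentration was referenced to vehicle-treated enzyme and no-enzyme wells. Enzyme at a 4 μg/mL working stock plus compound was mixed for 20 min at room temperature before the FS1 substrate (300 μg/mL working stock) was added for a 1 h room-temperature reaction.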

T1 sequence (P56817 46-501): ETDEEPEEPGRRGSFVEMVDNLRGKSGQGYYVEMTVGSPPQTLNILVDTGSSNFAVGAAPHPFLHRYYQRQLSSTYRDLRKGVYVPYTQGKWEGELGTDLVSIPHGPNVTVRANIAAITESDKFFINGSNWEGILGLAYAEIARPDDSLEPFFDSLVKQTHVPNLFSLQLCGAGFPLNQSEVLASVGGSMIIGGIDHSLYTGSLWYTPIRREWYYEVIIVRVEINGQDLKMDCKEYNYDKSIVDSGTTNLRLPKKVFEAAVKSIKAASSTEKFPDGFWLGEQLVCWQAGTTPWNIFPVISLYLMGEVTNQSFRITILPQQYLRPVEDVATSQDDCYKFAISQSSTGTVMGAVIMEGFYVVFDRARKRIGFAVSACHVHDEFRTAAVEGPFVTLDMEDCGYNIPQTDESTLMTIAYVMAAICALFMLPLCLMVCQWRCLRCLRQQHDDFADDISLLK

**Q.** How did the “% Inhibition (FS)” value (0.3 μM test compound) turn out when `Cc1ccccc1-c1ccc2c(c1)CN(CCNC(=O)C13CC4CC(CC(C4)C1)C3)C(N)=N2` [Compound 658] was run?
**A.** <30%

**Q.** And the “% Inhibition (FS)” value (1 μM test compound)?
**A.** 62%

**Q.** What about the “% Inhibition (FS)” value (3 μM test compound) of the same molecule?
**A.** 100%

**Q.** Which results are given for `CCCC(=O)NCCN1Cc2cc(-c3ccccc3C)ccc2N=C1N` [Compound 659]?
**A.** % Inhibition (FS) (0.3 μM test compound): 43%; % Inhibition (FS) (1 μM test compound): 69%; % Inhibition (FS) (3 μM test compound): 100%

**Q.** Which “% Inhibition (FS)” value (0.3 μM test compound) does the source give for `Cc1ccccc1-c1ccc2c(c1)CN(CCNC(=O)C(C)(C)C)C(N)=N2` [Compound 660] here?
**A.** 63%

**Q.** What about the “% Inhibition (FS)” value (1 μM test compound) of the same molecule?
**A.** 86%

**Q.** What about the “% Inhibition (FS)” value (3 μM test compound) of the same molecule?
**A.** 105%

**Q.** For `Cc1ccccc1-c1ccc2c(c1)CN(CCNC(=O)CCC(C)C)C(N)=N2` [Compound 661], which “% Inhibition (FS)” value (0.3 μM compound, FS1 substrate) is on record?
**A.** 68%

**Q.** What about the “% Inhibition (FS)” value (1 μM compound, FS1 substrate) of the same molecule?
**A.** 98%

**Q.** Which “% Inhibition (FS)” value (0.3 μM compound, FS1 substrate) does the source give for `CCCCC(CC)C(=O)NCCN1Cc2cc(-c3ccccc3C)ccc2N=C1N` (stereo not shown) [Compound 662] here?
**A.** 66%

**Q.** What about the “% Inhibition (FS)” value (1 μM compound, FS1 substrate) of the same molecule?
**A.** 97%

**Q.** Which “% Inhibition (FS)” value (0.3 μM compound, FS1 substrate) does the source give for `NC1=Nc2ccc(-c3ccc4ccccc4c3)cc2CN1CCNC(=O)C1CCC1` [Compound 663] here?
**A.** <30%

**Q.** And the “% Inhibition (FS)” value (1 μM compound, FS1 substrate)?
**A.** <30%

**Q.** And the “% Inhibition (FS)” value (3 μM compound, FS1 substrate)?
**A.** <30%

**Q.** Which results are given for `NC1=Nc2ccc(-c3ccc4ccccc4c3)cc2CN1CCNC(=O)C1CCCC1` [Compound 664]?
**A.** % Inhibition (FS) (0.3 μM compound, FS1 substrate): <30%; % Inhibition (FS) (1 μM compound, FS1 substrate): <30%; % Inhibition (FS) (3 μM compound, FS1 substrate): <30%

**Q.** Which results are given for `NC1=Nc2ccc(-c3ccc4ccccc4c3)cc2CN1CCNC(=O)C12CC3CC(CC(C3)C1)C2` [Compound 665]?
**A.** % Inhibition (FS) (0.3 μM compound, FS1 substrate): 35%; % Inhibition (FS) (1 μM compound, FS1 substrate): <30%; % Inhibition (FS) (3 μM compound, FS1 substrate): <30%

**Q.** Which “% Inhibition (FS)” value (0.3 μM compound, FS1 substrate) does the source give for `CCCC(=O)NCCN1Cc2cc(-c3ccc4ccccc4c3)ccc2N=C1N` [Compound 666] here?
**A.** 37%

**Q.** And the “% Inhibition (FS)” value (1 μM compound, FS1 substrate)?
**A.** <30%

**Q.** And the “% Inhibition (FS)” value (3 μM compound, FS1 substrate)?
**A.** <30%

**Q.** For `CC(C)(C)C(=O)NCCN1Cc2cc(-c3ccc4ccccc4c3)ccc2N=C1N` [Compound 667], which “% Inhibition (FS)” value (0.3 μM compound, FS1 substrate) is on record?
**A.** 33%

**Q.** And the “% Inhibition (FS)” value (1 μM compound, FS1 substrate)?
**A.** <30%

**Q.** And the “% Inhibition (FS)” value (3 μM compound, FS1 substrate)?
**A.** <30%

**Q.** Which “% Inhibition (FS)” value (0.3 μM compound, FS1 substrate) does the source give for `CC(C)CCC(=O)NCCN1Cc2cc(-c3ccc4ccccc4c3)ccc2N=C1N` [Compound 668] here?
**A.** <30%

**Q.** And the “% Inhibition (FS)” value (1 μM compound, FS1 substrate)?
**A.** <30%

**Q.** What about the “% Inhibition (FS)” value (3 μM compound, FS1 substrate) of the same molecule?
**A.** <30%

**Q.** How did the “% Inhibition (FS)” value (0.3 μM compound, FS1 substrate) turn out when `CCCCC(CC)C(=O)NCCN1Cc2cc(-c3ccc4ccccc4c3)ccc2N=C1N` (stereo not shown) [Compound 669] was run?
**A.** <30%

**Q.** And the “% Inhibition (FS)” value (1 μM compound, FS1 substrate)?
**A.** <30%

**Q.** And the “% Inhibition (FS)” value (3 μM compound, FS1 substrate)?
**A.** 32%

**Q.** For `NC1=Nc2ccc(-c3cnc4ccccc4c3)cc2CN1CCNC(=O)C1CCC1` [Compound 670], which “% Inhibition (FS)” value (0.3 μM compound, FS1 substrate) is on record?
**A.** <30%

**Q.** And the “% Inhibition (FS)” value (1 μM compound, FS1 substrate)?
**A.** <30%

**Q.** And the “% Inhibition (FS)” value (3 μM compound, FS1 substrate)?
**A.** 44%

**Q.** For `NC1=Nc2ccc(-c3cnc4ccccc4c3)cc2CN1CCNC(=O)C1CCCC1` [Compound 671], which “% Inhibition (FS)” value (0.3 μM compound, FS1 substrate) is on record?
**A.** <30%

**Q.** What about the “% Inhibition (FS)” value (1 μM compound, FS1 substrate) of the same molecule?
**A.** 30%

**Q.** What about the “% Inhibition (FS)” value (3 μM compound, FS1 substrate) of the same molecule?
**A.** <30%

**Q.** `NC1=Nc2ccc(-c3cnc4ccccc4c3)cc2CN1CCNC(=O)C12CC3CC(CC(C3)C1)C2` [Compound 672] was tested. Which “% Inhibition (FS)” value (0.3 μM compound, FS1 substrate) did it give?
**A.** <30%

**Q.** What about the “% Inhibition (FS)” value (1 μM compound, FS1 substrate) of the same molecule?
**A.** <30%

**Q.** And the “% Inhibition (FS)” value (3 μM compound, FS1 substrate)?
**A.** <30%

**Q.** How did the “% Inhibition (FS)” value (0.3 μM compound, FS1 substrate) turn out when `CCCC(=O)NCCN1Cc2cc(-c3cnc4ccccc4c3)ccc2N=C1N` [Compound 673] was run?
**A.** 34%

**Q.** What about the “% Inhibition (FS)” value (1 μM compound, FS1 substrate) of the same molecule?
**A.** <30%

**Q.** And the “% Inhibition (FS)” value (3 μM compound, FS1 substrate)?
**A.** <30%

**Q.** Which “% Inhibition (FS)” value (0.3 μM compound, FS1 substrate) does the source give for `CC(C)(C)C(=O)NCCN1Cc2cc(-c3cnc4ccccc4c3)ccc2N=C1N` [Compound 674] here?
**A.** 36%

**Q.** What about the “% Inhibition (FS)” value (1 μM compound, FS1 substrate) of the same molecule?
**A.** <30%

**Q.** And the “% Inhibition (FS)” value (3 μM compound, FS1 substrate)?
**A.** 41%

**Q.** `CC(C)CCC(=O)NCCN1Cc2cc(-c3cnc4ccccc4c3)ccc2N=C1N` [Compound 675] was tested. Which “% Inhibition (FS)” value (0.3 μM compound, FS1 substrate) did it give?
**A.** 35%

**Q.** What about the “% Inhibition (FS)” value (1 μM compound, FS1 substrate) of the same molecule?
**A.** <30%

**Q.** And the “% Inhibition (FS)” value (3 μM compound, FS1 substrate)?
**A.** <30%

**Q.** Which results are given for `CCCCC(CC)C(=O)NCCN1Cc2cc(-c3cnc4ccccc4c3)ccc2N=C1N` (stereo not shown) [Compound 676]?
**A.** % Inhibition (FS) (0.3 μM compound, FS1 substrate): 33%; % Inhibition (FS) (1 μM compound, FS1 substrate): <30%; % Inhibition (FS) (3 μM compound, FS1 substrate): 44%

**Q.** `Cc1ccccc1-c1ccc2c(c1)CN(CCNC(=O)CCC(F)(F)F)C(N)=N2` [Compound 678] was tested. Which “% Inhibition (FS)” value (0.3 μM compound, FS1 substrate) did it give?
**A.** 51%

**Q.** What about the “% Inhibition (FS)” value (1 μM compound, FS1 substrate) of the same molecule?
**A.** 88%

**Q.** And the “% Inhibition (FS)” value (3 μM compound, FS1 substrate)?
**A.** 99%

**Q.** Which “% Inhibition (FS)” value (0.3 μM compound, FS1 substrate) does the source give for `Cc1ccccc1-c1ccc2c(c1)CN(CCNC(=O)CC(C)C(F)(F)F)C(N)=N2` (stereo not shown) [Compound 679] here?
**A.** 78%

**Q.** And the “% Inhibition (FS)” value (1 μM compound, FS1 substrate)?
**A.** 99%

**Q.** How did the “% Inhibition (FS)” value (0.3 μM compound, FS1 substrate) turn out when `NC1=Nc2ccc(-c3ccccc3F)cc2CN1CCNC(=O)CCC(F)(F)F` [Compound 680] was run?
**A.** 42%

**Q.** And the “% Inhibition (FS)” value (1 μM compound, FS1 substrate)?
**A.** 75%

**Q.** And the “% Inhibition (FS)” value (3 μM compound, FS1 substrate)?
**A.** 90%

**Q.** Which “% Inhibition (FS)” value (0.3 μM compound, FS1 substrate) does the source give for `CC(CC(=O)NCCN1Cc2cc(-c3ccccc3F)ccc2N=C1N)C(F)(F)F` (stereo not shown) [Compound 681] here?
**A.** 67%

**Q.** What about the “% Inhibition (FS)” value (1 μM compound, FS1 substrate) of the same molecule?
**A.** 100%

**Q.** Which results are given for `NC1=Nc2ccc(-c3ccccc3Cl)cc2CN1CCNC(=O)CCC(F)(F)F` [Compound 682]?
**A.** % Inhibition (FS) (0.3 μM compound, FS1 substrate): 39%; % Inhibition (FS) (1 μM compound, FS1 substrate): 77%; % Inhibition (FS) (3 μM compound, FS1 substrate): 97%

**Q.** What does the source list for `CC(CC(=O)NCCN1Cc2cc(-c3ccccc3Cl)ccc2N=C1N)C(F)(F)F` (stereo not shown) [Compound 683]?
**A.** % Inhibition (FS) (0.3 μM compound, FS1 substrate): 64%; % Inhibition (FS) (1 μM compound, FS1 substrate): 86%

**Q.** `NC1=Nc2ccc(-c3ccccc3)cc2CN1CCNC(=O)CCC(F)(F)F` [Compound 684] was tested. Which “% Inhibition (FS)” value (0.3 μM compound, FS1 substrate) did it give?
**A.** 33%

**Q.** What about the “% Inhibition (FS)” value (1 μM compound, FS1 substrate) of the same molecule?
**A.** 38%

**Q.** And the “% Inhibition (FS)” value (3 μM compound, FS1 substrate)?
**A.** 78%
